Source: patent publication US20070134261A1, “Effectors of innate immunity” (priority 2001, published 2007)

How the values were obtained:
[1] = system: A549 human epithelial cells; assay: LPS induced IL-8 production in A549 cells (ELISA); type: cell-based; conditions: 100 ng/ml E. coli O111:B4 LPS, 24 hours
[2] = system: human bronchial epithelial cells (16HBEo14); assay: Induction of IL-8 in HBE cells; type: cell-based; conditions: for IL-8: 8 h
Experimental: The murine macrophage cell line RAW 264.7, THP-1 cells (human monocytes), a human epithelial cell line (A549), human bronchial epithelial cells (16HBEo14), and whole human blood were used. HBE cells were grown in MEM with Earle's. THP-1 cells were grown and maintained in RPMI 1640 medium. The RAW and A549 cell lines were maintained in DMEM supplemented with 10% fetal calf serum. […] DMEM was aspirated from cells grown overnight and replaced with fresh medium. After incubation of the cells with peptide, the release of chemokines into the culture supernatant was determined by ELISA (R&D Systems, Minneapolis, Minn.).

With `CC[C@H](C)[C@H](N)C(=O)N[C@@H](CC(C)C)C(=O)N1CCC[C@H]1C(=O)N[C@@H](Cc1c[nH]c2ccccc12)C(=O)N[C@@H](CCCCN)C(=O)N[C@@H](Cc1c[nH]c2ccccc12)C(=O)N1CCC[C@H]1C(=O)N[C@@H](Cc1c[nH]c2ccccc12)C(=O)N[C@@H](Cc1c[nH]c2ccccc12)C(=O)N1CCC[C@H]1C(=O)N[C@@H](Cc1c[nH]c2ccccc12)C(=O)N[C@@H](CCCNC(=N)N)C(=O)N[C@@H](CCCNC(=N)N)C(N)=O` [SEQ ID NO: 2] the “Inhibition of IL-8” value ([1]; SEQ ID NO: 2 0.1 μg/ml) was 6.8 ± 9.6%, the “Inhibition of IL-8” value ([1]; SEQ ID NO: 2 1 μg/ml) was 12.8 ± 24.5% and the “Inhibition of IL-8” value ([1]; SEQ ID NO: 2 10 μg/ml) was 29.0 ± 26.0%. The “Inhibition of IL-8” value ([1]; SEQ ID NO: 2 50 μg/ml) was 39.8 ± 1.6%, the “Inhibition of IL-8” value ([1]; SEQ ID NO: 2 100 μg/ml) was 45.0 ± 3.5% and the “induction of IL-8” value [2] was “significantly induced IL-8”. It also gave an IL-8 ([2]; peptide 0.1 μg/ml) of 670 ± 155 pg/mL, an IL-8 ([2]; peptide 1 μg/ml) of 712 ± 205 pg/mL and an IL-8 ([2]; peptide 10 μg/ml) of 941 ± 15 pg/mL. It also gave an IL-8 ([2]; peptide 50 μg/ml) of 1490 ± 715 pg/mL.
